Reference: patent US12013398B2, “Compositions and methods for treatment of invasive cancers” (The George Washington University, priority 2021, dated 2024)
“Also recorded” adds a separate entry of the source.

Legend:
Type in all cases: cell-based
ATP1a1 = target: T1, ATP1a1 (Homo sapiens, UniProt P05023); experiment: Immunofluorescence imaging of plasma membrane ATP1A1 localization in overconfluent DCIS.com cells; settings: OC DCIS.com cells; 20 nM lithium bicarbonate or 100 nM ouabain, 24 hours; IF images
T1 construct: endogenous in cells; host or cells: MCF10DCIS.com (DCIS.com) cells, overconfluent
Excerpt: FIGS. 4A-4B depict images illustrating ion channel enrichment in DCIS plasma membranes. […] Transferrin receptor (TfR) distribution was insensitive to cell crowding. IF images. […] Scale bar=10 μm.
Crowding-induced cell volume changes typically occur under isotonic conditions and are accompanied by the efflux of intracellular osmolytes through ion channels. Methods herein assessed if ion channel activities were altered when cells are crowded.

DCIS.com cells [1] = experiment: Cell cycle arrest in crowded DCIS.com cells; settings: crowded DCIS cells treated with TSA vs vehicle
Excerpt: FIGS. 11A-11D depict images and graphs illustrating independent possibilities for crowding-mediated increased invasiveness. […] FIGS. 11C-11D show images of DCIS.com cell invasiveness after treatment with vehicle or TSA (FIG. 11C) and the percentage of invasive cells per treatment group (FIG. 11D).
(§1) Also assessed were two independent possibilities for crowding-mediated increased invasiveness: YAP-association and cell cycle arrest (high-density cells are subject to G1 arrest).

DCIS.com cells [2] = experiment: 2D hydrogel matrix-based invasion assay; settings: crowded DCIS.com cells treated with TSA vs vehicle
Excerpt: FIGS. 6A-6G depict images illustrating 2D hydrogel-based invasion assays. […] Percent (%) invading cells was calculating by dividing this value by the total number of spots. […] Scale bar=100 μm (FIGS. 6B-6E) and 10 μm (FIGS. 6F-6G).
To compare the invasive potential of live cells between different treatment groups, exemplary methods herein established a hydrogel matrix-based invasion assay (FIG. 6A). This assay was used to quantify the invasive cell fraction as a percentage of the total, based on fluorescence imaging results (FIGS. 6B-6E). Since cell stiffness is modulated by the stiffness of the surroundings [the values for normal breast versus DCIS cells are known to be ˜0.1 versus ˜10 kPa], the hydrogel matrix could be stiffness-controlled within the range specified above, as confirmed by nanoindenter measurements.
as §1

Row | SMILES | PM ATP1a1 localization / PM abundance of ion channels (ATP1a1) | cell cycle arrest (DCIS.com cells [1]) | invasiveness of DCIS.com cells (percentage of invasive cells) (DCIS.com cells [2])
1 | O=C([O-])O.[Li+] [lithium bicarbonate] | the perturbation was less obvious | – | –
2 | CC(/C=C/C(=O)NO)=C\[C@@H](C)C(=O)c1ccc(N(C)C)cc1 [Trichostatin A] | – | reversed the cell cycle arrest | did not decrease the invasiveness
3 | C[C@@H]1O[C@@H](O[C@H]2C[C@@H](O)[C@]3(CO)[C@H]4[C@H](O)C[C@]5(C)[C@@H](C6=CC(=O)OC6)CC[C@]5(O)[C@@H]4CC[C@]3(O)C2)[C@H](O)[C@H](O)[C@H]1O [ouabain] | the PM abundance of ion channels was perturbed; also recorded: perturbed PM ATP1a1 localization | – | –
